For one assay, the target named is human factor XIa (Homo sapiens, UniProt P03951). The experiment in a line: Factor XIa Assay. The assay is classed as biochemical. The note with it: human factor XIa 0.04 nM, substrate GPR-AFC, 30 min pre-incubation, 25° C., pH 7.4; read-out: FXIa IC50. How it is done: (§1) The effectiveness of a compound of the present invention as an inhibitor of Coagulation factor XIa can be determined using a relevant purified serine protease, and an appropriate synthetic substrate. The rate of hydrolysis of the chromogenic or fluorogenic substrate by the relevant serine protease was measured both in the absence and presence of compounds of the present invention. Assays were conducted at rt or at 37° C. […] A decrease in the rate of fluorescence change in the presence of inhibitor is indicative of enzyme inhibition. Such methods are known to one skilled in the art. The results of this assay are expressed as the half-maximal inhibitory concentrations (IC50), or the inhibitory constant, Ki.
Chain of human factor XIa (P03951 388-625 limits assumed): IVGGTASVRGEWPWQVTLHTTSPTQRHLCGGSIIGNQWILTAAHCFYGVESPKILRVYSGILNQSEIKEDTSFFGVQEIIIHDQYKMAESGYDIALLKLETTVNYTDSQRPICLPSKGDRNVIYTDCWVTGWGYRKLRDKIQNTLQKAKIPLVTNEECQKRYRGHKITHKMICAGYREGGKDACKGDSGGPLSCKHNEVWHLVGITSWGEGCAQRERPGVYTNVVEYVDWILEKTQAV
Chain of human factor XIa (P03951 19-387 partner limits assumed): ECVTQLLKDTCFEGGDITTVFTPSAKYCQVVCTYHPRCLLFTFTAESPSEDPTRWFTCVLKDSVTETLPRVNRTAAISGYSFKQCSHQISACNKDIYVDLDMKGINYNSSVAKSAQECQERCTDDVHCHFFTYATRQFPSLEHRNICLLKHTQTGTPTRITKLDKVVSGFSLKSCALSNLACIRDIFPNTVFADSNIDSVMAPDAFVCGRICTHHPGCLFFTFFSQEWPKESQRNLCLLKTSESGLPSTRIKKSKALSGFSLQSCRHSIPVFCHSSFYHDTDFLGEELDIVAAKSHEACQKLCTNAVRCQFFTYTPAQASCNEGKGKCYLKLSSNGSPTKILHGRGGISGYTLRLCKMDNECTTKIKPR
Compounds were pre-incubated for 30 min at 25° C. with human (0.04 nM) factor XIa in 50 mM HEPES buffer with 150 mM sodium chloride, 5 mM calcium chloride, 0.1% PEG 8000, pH 7.4. factor XIa enzymatic activity was determined by addition of the substrate glycine-proline-arginine-7-amido-4-trifluoromethylcoumarin (GPR-AFC) and measurement of the fluorescence at 400/505 nm after a 60 min incubation at 25° C. The % inhibition for each data point was calculated from the data and analyzed using the log (inhibitor) vs. response four parameters equation to determine the half-maximal inhibitory concentrations (IC50). The IC50 were converted to equilibrium inhibitory constants (Ki) using the Cheng-Prusoff equation.

For a further assay, the target named is T1, Human plasma kallikrein (Homo sapiens, UniProt P03952).
T1 construct: yields a heavy chain (371 amino acids) and a light chain (248 amino acids); The active site of plasma kallikrein is contained in the light chain; purchased Enzyme Research Laboratories
T1 sequence (P03952 391-638 limits assumed): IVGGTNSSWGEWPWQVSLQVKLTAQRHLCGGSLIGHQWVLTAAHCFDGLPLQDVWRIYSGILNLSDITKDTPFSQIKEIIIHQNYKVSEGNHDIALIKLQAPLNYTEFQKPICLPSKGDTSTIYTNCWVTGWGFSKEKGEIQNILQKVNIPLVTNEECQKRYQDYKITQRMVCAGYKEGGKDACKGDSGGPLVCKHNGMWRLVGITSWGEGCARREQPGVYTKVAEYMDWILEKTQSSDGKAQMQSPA
T1 sequence (P03952 20-390 partner limits assumed): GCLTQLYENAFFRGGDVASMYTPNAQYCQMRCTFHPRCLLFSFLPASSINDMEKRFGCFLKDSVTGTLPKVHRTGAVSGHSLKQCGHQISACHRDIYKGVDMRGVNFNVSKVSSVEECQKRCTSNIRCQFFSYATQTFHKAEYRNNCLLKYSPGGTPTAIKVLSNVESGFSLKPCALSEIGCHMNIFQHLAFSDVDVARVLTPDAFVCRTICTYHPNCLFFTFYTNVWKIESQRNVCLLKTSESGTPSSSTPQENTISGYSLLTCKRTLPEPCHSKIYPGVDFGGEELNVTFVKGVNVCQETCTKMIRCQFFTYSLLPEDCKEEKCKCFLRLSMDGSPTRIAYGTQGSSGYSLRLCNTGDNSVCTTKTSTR
The experiment in a line: Plasma Kallikrein Assay. The assay is classed as biochemical. The note with it: purified Human plasma kallikrein 0.5 nM, substrate Acetyl-K-P-R-AFC, HEPES pH 7.4; read-out: PKal IC50. How it is done:
as §1, with “plasma kallikrein” for “Coagulation factor XIa”
Plasma kallikrein determinations were made in 50 mM HEPES buffer at pH 7.4 containing 150 mM NaCl, 5 mM CaCl2), and 0.1% PEG 8000 (polyethylene glycol; Fisher Scientific). Determinations were made using purified Human plasma kallikrein at a final concentration of 0.5 nM (Enzyme Research Laboratories) and the synthetic substrate, Acetyl-K—P—R-AFC (Sigma #C6608) at a concentration of […].
Times required to achieve equilibration between enzyme and inhibitor were determined in control experiments. […] IC50 was determined by inflection point from a four parameter logistic curve fit. Ki was calculated using the Cheng Prusoff equation, Ki=IC50/[…](1+([S]/Km)).

On to `Nc1c(C(=O)N2CCC[C@@]3(C2)OC(=O)Nc2ccc(Cl)c(F)c23)cnn1-c1ccccc1Cl` [Example 82, (R)-1'-(5-Amino-1-(2-chlorophenyl)-1H-pyrazole-4-carbonyl)-6-chloro-5-fluorospiro[benzo[d][1,3]oxazine-4,3'-piperidin]-2(1H)-one], for which the IC50 on human factor XIa amounted to 739 nM; at Human plasma kallikrein, 28.4 nM.
Turning to `Nc1c(C(=O)N2CCC[C@@]3(C2)OC(=O)Nc2ccc(Cl)c(F)c23)cnn1CCC(F)(F)F` [Example 27, (R)-1'-(5-Amino-1-(3,3,3-trifluoropropyl)-1H-pyrazole-4-carbonyl)-6-chloro-5-fluorospiro[benzo[d][1,3]oxazine-4,3'-piperidin]-2(1H)-one], the IC50 on human factor XIa was 699 nM; on Human plasma kallikrein it was 18.8 nM.
For `CC(n1ncc(C(=O)N2CCC[C@@]3(C2)OC(=O)Nc2ccc(Cl)c(F)c23)c1N)C(F)(F)F` (single isomer, unassigned) [Example 121, (R)-1'-(5-Amino-1-((S or R)-1,1,1-trifluoropropan-2-y1)-1H-pyrazole-4-carbonyl)-6-chloro-5-fluorospiro[benzo[d][1,3]oxazine-4,3'-piperidin]-2(1H)-one] the same measures were 591 nM and 4.9 nM.
For `CCC(C1CCOCC1)n1ncc(C(=O)N2CCC[C@@]3(C2)OC(=O)Nc2ccc(Cl)c(F)c23)c1N` (single isomer, unassigned) [Example 113, (R)-1'-(5-Amino-1-((S or R)-1-(tetrahydro-2H-pyran-4-yl)propyl)-1H-pyrazole-4-carbonyl)-6-chloro-5-fluorospiro[benzo[d][1,3]oxazine-4,3'-piperidin]-2(1H)-one] the same measures were 2 nM and 0.6 nM.
For `Cc1ccc(-n2ncc(C(=O)N3CCC[C@@]4(C3)OC(=O)Nc3ccc(Cl)c(F)c34)c2N)c(C)c1` [Example 86, (R)-1'-(5-Amino-1-(2,4-dimethylphenyl)-1H-pyrazole-4-carbonyl)-6-chloro-5-fluorospiro[benzo[d][1,3]oxazine-4,3'-piperidin]-2(1H)-one] the same measures were 645 nM and 46 nM.
As for `Nc1c(C(=O)N2CCC[C@@]3(C2)OC(=O)Nc2ccc(Cl)c(F)c23)cnn1C1(C(F)(F)F)CC1` [Example 50, (R)-1'-(5-Amino-1-(1-(trifluoromethyl)cyclopropyl)-1H-pyrazole-4-carbonyl)-6-chloro-5-fluorospiro[benzo[d][1,3]oxazine-4,3'-piperidin]-2(1H)-one], the IC50 was 684 nM on human factor XIa and 8.3 nM at Human plasma kallikrein.
In the case of `Cc1ccc(F)cc1-n1ncc(C(=O)N2CCC[C@@]3(C2)OC(=O)Nc2ccc(Cl)c(F)c23)c1N` [Example 88, (R)-1'-(5-Amino-1-(5-fluoro-2-methylpheny1)-1H-pyrazole-4-carbonyl)-6-chloro-5-fluorospiro[benzo[d][1,3]oxazine-4,3'-piperidin]-2(1H)-one], the IC50 worked out at 1690 nM at human factor XIa and 47 nM on Human plasma kallikrein.
For `Nc1c(C(=O)N2CCC[C@@]3(C2)OC(=O)Nc2ccc(Cl)c(F)c23)cnn1Cc1cncnc1` [Example 51, (R)-1'-(5-Amino-1-(pyrimidin-5-ylmethyl)-1H-pyrazole-4-carbonyl)-6-chloro-5-fluorospiro[benzo[d][1,3]oxazine-4,3'-piperidin]-2(1H)-one] the same measures were 996 nM and 9.8 nM.
For `COc1ccc(-n2ncc(C(=O)N3CCC[C@@]4(C3)OC(=O)Nc3ccc(Cl)c(F)c34)c2N)cc1` [Example 58, (R)-1'-(5-Amino-1-(4-methoxyphenyl)-1H-pyrazole-4-carbonyl)-6-chloro-5-fluorospiro[benzo[d][1,3]oxazine-4,3'-piperidin]-2(1H)-one] the same measures were 3130 nM and 39.7 nM.
As to `Nc1c(C(=O)N2CCC[C@@]3(C2)OC(=O)Nc2ccc(Cl)c(F)c23)nnn1Cc1ccccc1` [Example 133, (R)-1′-(5-Amino-1-benzyl-1H-1,2,3-triazole-4-carbonyl)-6-chloro-5-fluorospiro[benzo[d][1,3]oxazine-4,3′-piperidin]-2(1H)-one], the figures for the IC50 at human factor XIa and at Human plasma kallikrein were 328 nM and 190 nM, respectively.
For `Nc1c(C(=O)N2CCC[C@@]3(C2)OC(=O)Nc2ccc(Cl)c(F)c23)cnn1Cc1cccc(Cl)c1` [Example 6, (R)-1'-(5-Amino-1-(3-chlorobenzyl)-1H-pyrazole-4-carbonyl)-6-chloro-5-fluorospiro[benzo[d][1,3]oxazine-4,3'-piperidin]-2(1H)-one] the same measures were 177 nM and 0.5 nM.
Take `COc1cccc(Cn2ncc(C(=O)N3CCC[C@@]4(C3)OC(=O)Nc3ccc(Cl)c(F)c34)c2N)c1` [Example 39, (R)-1'-(5-Amino-1-(3-methoxybenzyl)-1H-pyrazole-4-carbonyl)-6-chloro-5-fluorospiro[benzo[d][1,3]oxazine-4,3'-piperidin]-2(1H)-one]: the IC50 on human factor XIa was found to be 293 nM; at Human plasma kallikrein, 1.2 nM.
Take `COCCn1ncc(C(=O)N2CCC[C@@]3(C2)OC(=O)Nc2ccc(Cl)c(F)c23)c1N` [Example 24, (R)-1'-(5-Amino-1-(2-methoxyethyl)-1H-pyrazole-4-carbonyl)-6-chloro-5-fluorospiro[benzo[d][1,3]oxazine-4,3'-piperidin]-2(1H)-one]: the IC50 on human factor XIa stood at 425 nM; on Human plasma kallikrein, 10.9 nM.
Regarding `Nc1c(C(=O)N2CCC[C@@]3(C2)OC(=O)Nc2ccc(Cl)c(F)c23)cnn1-c1cc(F)ccc1Cl` [Example 78, (R)-1'-(5-Amino-1-(2-chloro-5-fluorophenyl)-1H-pyrazole-4-carbonyl)-6-chloro-5-fluorospiro[benzo[d][1,3]oxazine-4,3'-piperidin]-2(1H)-one], the IC50 turned out to be 813 nM on human factor XIa and 35.9 nM at Human plasma kallikrein.
The matching figures for `Nc1c(C(=O)N2CCC[C@@]3(C2)OC(=O)Nc2ccc(Cl)c(F)c23)cnn1-c1cc(F)ccc1OC(F)F` [Example 106, (R)-1'-(5-Amino-1-(2-(difluoromethoxy)-5-fluorophenyl)-1H-pyrazole-4-carbonyl)-6-chloro-5-fluorospiro[benzo[d][1,3]oxazine-4,3'-piperidin]-2(1H)-one]: 1070 nM and 34.8 nM.
Consider `CC(C1CC1)(n1ncc(C(=O)N2CCC[C@@]3(C2)OC(=O)Nc2ccc(Cl)c(F)c23)c1N)C(F)(F)F` (single isomer, unassigned) [Example 126, (R)-1'-(5-Amino-1-((R or S)-2-cyclopropyl-1,1,1-trifluoropropan-2-y1)-1H-pyrazole-4-carbonyl)-6-chloro-5-fluorospiro[benzo[d][1,3]oxazine-4,3'-piperidin]-2(1H)-one], for which the IC50 at human factor XIa is 459 nM; at Human plasma kallikrein, 2.2 nM.
For `Nc1c(C(=O)N2CCC[C@@]3(C2)OC(=O)Nc2ccc(Cl)c(F)c23)cnn1C1(C(F)(F)F)CCC1` [Example 47, (R)-1'-(5-Amino-1-(1-(trifluoromethyl)cyclobutyl)-1H-pyrazole-4-carbonyl)-6-chloro-5-fluorospiro[benzo[d][1,3]oxazine-4,3'-piperidin]-2(1H)-one] the same measures were 731 nM and 6.3 nM.
Regarding `COc1ccccc1-n1ncc(C(=O)N2CCC[C@@]3(C2)OC(=O)Nc2ccc(Cl)c(F)c23)c1N` [Example 79, (R)-1'-(5-Amino-1-(2-methoxyphenyl)-1H-pyrazole-4-carbonyl)-6-chloro-5-fluorospiro[benzo[d][1,3]oxazine-4,3'-piperidin]-2(1H)-one], the values for the IC50 at human factor XIa and at Human plasma kallikrein were 377 nM and 5.8 nM, respectively.
For `Nc1c(C(=O)N2CCC[C@@]3(C2)OC(=O)Nc2ccc(Cl)c(F)c23)cnn1CCOCC(F)(F)F` [Example 20, (R)-1'-(5-Amino-1-(2-(2,2,2-trifluoroethoxy)ethyl)-1H-pyrazole-4-carbonyl)-6-chloro-5-fluorospiro[benzo[d][1,3]oxazine-4,3'-piperidin]-2(1H)-one] the same measures were 882 nM and 5.9 nM.

The term IC50 denotes the midpoint of a concentration-inhibition curve.

The record behind these values is patent US12679848B2, “Plasma kallikrein inhibitors” (Merck Sharp & Dohme LLC, priority 2020, dated 2026).
